Laboratory results taken from ChEMBL document CHEMBL5038598, “Design and Synthesis of Pyrrolo[2,3-d]pyrimidine-Derived Leucine-Rich Repeat Kinase 2 (LRRK2) Inhibitors Using a Checkpoint Kinase 1 (CHK1)-Derived Crystallographic Surrogate” (J Med Chem, 2021).
pIC50, pKd: −log10 of the molar value.

Key:
[1] = target: Receptor-type tyrosine-protein kinase FLT3 (Homo sapiens, UniProt P36888, D835V/ITD); experiment: Binding affinity to human FLT3 ITD, D835V (V592/Y969) mutant expressed in mammalian system assessed as dissociation constant measured at 1 uM by DiscoveRx KINOMEscan assay
[2] = Clearance in human liver microsomes; format: ADME, Microsome; conditions: read-out: CLH (converted)
[3] = tested on: Receptor-type tyrosine-protein kinase FLT3 (Homo sapiens), P36888 [UNDEFINED MUTATION]; experiment: Inhibition of human FLT3 ITD, D835V (V592/Y969) mutant expressed in bacterial system assessed as remaining activity measured at 1 uM by DiscoveRx KINOMEscan assay relative to control; values are per cent of control
[4] = target: Phosphatidylinositol 4-kinase beta (Homo sapiens, UniProt Q9UBF8); experiment: Inhibition of PI4KB expressed in human PBMCs measured at 10 uM by KiNativ profiling analysis relative to control
Phosphatidylinositol 4-kinase beta, sequence (Q9UBF8 2-816 limits assumed): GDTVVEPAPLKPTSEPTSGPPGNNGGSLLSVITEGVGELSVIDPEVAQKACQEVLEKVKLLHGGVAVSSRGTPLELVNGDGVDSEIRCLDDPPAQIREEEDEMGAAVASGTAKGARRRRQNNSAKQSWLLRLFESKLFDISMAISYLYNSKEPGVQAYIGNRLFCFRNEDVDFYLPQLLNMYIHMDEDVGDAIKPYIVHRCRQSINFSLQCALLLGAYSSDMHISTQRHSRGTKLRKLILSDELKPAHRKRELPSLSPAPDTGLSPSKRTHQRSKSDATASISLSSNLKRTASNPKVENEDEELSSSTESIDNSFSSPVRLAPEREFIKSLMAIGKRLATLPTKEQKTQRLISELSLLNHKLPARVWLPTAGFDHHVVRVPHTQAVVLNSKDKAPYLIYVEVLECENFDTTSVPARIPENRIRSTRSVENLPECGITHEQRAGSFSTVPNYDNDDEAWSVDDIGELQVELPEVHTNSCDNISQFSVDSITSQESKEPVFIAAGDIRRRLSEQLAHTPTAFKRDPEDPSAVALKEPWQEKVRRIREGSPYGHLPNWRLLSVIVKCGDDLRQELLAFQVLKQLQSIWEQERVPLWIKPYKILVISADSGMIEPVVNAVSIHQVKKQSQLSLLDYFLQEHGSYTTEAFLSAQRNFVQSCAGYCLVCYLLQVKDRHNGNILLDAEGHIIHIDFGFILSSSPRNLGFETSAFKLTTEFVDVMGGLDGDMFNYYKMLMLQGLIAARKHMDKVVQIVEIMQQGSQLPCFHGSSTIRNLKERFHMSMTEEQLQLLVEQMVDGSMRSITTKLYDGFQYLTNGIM

BCRP (human) [5] = experiment: Efflux ratio of apparent permeability in MDCK cells expressing human BCRP; format: ADME, cell-based, Canis lupus familiaris; conditions: dog
[6] = Volume of distribution in steady state in Sprague-Dawley rat plasma at 1 mg/kg, IV […]; format: ADME, organism-based; conditions: read-out: Vdss
[7] = Ratio of drug level in C57BL/6 WT mouse brain to plasma at 5 mg/kg, sc and measured after 0.5 hrs; format: ADME, organism-based; conditions: for Kp at 0.5 h: C57BL/6, mouse, brain and plasma
[8] = target: T1, Leucine-rich repeat serine/threonine-protein kinase 2 (Homo sapiens, UniProt Q5S007, G2019S); experiment: Inhibition of recombinant human GST tagged truncated LRRK2 G2019S mutant using fluorescein-labeled LRRKtide as substrate in presence of ATP preincubated for 50 mins followed by anti-phospho-LRRKtide antibody addition and measured after 30 mins by TR-FRET based Lanthascreen kinase activity assay
T1 sequence (Q5S007 whole entry G2019S, the tested form may be a part): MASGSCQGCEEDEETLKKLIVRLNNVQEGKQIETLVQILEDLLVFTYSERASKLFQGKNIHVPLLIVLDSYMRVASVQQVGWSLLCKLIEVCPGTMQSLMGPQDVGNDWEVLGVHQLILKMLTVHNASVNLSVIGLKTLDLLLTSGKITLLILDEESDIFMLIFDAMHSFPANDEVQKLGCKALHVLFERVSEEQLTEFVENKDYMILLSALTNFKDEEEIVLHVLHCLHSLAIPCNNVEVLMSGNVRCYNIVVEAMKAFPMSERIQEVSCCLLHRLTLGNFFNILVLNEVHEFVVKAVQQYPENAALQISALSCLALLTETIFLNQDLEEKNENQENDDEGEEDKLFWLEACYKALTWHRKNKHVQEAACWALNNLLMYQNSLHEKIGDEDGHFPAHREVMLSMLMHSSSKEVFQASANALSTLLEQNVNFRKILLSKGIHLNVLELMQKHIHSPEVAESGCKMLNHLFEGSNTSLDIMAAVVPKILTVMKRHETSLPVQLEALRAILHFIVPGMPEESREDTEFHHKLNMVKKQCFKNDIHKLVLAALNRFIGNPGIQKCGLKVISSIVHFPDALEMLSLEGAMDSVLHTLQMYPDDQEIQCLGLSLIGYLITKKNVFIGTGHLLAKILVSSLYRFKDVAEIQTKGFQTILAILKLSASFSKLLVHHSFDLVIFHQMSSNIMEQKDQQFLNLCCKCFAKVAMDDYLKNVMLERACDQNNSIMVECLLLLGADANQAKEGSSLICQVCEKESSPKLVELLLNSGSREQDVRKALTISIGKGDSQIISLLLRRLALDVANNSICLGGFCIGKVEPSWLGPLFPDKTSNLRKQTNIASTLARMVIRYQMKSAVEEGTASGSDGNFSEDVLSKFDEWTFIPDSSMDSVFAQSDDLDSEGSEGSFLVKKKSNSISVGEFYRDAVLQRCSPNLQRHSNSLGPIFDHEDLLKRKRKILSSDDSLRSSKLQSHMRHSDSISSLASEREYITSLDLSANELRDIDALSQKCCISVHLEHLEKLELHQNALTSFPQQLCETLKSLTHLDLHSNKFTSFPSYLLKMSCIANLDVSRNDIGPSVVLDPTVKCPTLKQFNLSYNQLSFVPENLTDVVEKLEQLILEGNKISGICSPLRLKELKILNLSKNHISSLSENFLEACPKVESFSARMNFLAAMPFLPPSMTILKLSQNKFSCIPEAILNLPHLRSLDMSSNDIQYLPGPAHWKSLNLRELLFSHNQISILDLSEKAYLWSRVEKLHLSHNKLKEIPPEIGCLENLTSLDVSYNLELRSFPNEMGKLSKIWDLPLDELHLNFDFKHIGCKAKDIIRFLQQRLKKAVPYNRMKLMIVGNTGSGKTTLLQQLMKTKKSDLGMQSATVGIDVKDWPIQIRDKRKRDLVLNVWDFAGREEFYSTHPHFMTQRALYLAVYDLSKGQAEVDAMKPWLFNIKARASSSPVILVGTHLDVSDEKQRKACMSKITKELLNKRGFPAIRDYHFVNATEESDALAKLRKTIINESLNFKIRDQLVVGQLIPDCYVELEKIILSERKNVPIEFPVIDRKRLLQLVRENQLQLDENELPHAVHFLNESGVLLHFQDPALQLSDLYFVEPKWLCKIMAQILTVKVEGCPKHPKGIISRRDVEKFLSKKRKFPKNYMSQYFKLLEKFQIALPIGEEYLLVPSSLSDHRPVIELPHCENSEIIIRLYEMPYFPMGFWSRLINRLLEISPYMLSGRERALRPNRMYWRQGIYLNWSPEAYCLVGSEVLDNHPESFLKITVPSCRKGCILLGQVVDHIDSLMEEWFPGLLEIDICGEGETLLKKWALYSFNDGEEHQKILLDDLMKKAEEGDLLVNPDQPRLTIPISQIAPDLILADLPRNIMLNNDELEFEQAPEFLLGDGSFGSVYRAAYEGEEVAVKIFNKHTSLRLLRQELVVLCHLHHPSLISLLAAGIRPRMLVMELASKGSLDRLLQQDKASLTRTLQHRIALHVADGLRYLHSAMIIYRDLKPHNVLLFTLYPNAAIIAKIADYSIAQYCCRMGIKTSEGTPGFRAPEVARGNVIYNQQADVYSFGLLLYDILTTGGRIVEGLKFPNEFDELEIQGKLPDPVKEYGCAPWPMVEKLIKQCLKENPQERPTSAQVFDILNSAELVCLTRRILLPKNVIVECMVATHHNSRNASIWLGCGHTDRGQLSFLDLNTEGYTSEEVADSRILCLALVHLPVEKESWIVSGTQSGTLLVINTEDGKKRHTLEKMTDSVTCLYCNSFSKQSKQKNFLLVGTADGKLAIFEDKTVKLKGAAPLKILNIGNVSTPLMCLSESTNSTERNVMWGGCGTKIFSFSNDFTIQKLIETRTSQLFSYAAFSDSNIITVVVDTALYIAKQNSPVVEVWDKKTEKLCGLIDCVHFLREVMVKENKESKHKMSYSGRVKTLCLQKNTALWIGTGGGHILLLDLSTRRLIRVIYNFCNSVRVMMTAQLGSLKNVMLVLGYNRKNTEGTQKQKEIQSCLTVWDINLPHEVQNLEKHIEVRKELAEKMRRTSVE

[9] = target: Mitogen-activated protein kinase kinase kinase 1 (Homo sapiens, UniProt Q13233); experiment: Inhibition of MAP3K1 expressed in human PBMCs measured by KiNativ profiling analysis
Mitogen-activated protein kinase kinase kinase 1, sequence (Q13233 whole entry): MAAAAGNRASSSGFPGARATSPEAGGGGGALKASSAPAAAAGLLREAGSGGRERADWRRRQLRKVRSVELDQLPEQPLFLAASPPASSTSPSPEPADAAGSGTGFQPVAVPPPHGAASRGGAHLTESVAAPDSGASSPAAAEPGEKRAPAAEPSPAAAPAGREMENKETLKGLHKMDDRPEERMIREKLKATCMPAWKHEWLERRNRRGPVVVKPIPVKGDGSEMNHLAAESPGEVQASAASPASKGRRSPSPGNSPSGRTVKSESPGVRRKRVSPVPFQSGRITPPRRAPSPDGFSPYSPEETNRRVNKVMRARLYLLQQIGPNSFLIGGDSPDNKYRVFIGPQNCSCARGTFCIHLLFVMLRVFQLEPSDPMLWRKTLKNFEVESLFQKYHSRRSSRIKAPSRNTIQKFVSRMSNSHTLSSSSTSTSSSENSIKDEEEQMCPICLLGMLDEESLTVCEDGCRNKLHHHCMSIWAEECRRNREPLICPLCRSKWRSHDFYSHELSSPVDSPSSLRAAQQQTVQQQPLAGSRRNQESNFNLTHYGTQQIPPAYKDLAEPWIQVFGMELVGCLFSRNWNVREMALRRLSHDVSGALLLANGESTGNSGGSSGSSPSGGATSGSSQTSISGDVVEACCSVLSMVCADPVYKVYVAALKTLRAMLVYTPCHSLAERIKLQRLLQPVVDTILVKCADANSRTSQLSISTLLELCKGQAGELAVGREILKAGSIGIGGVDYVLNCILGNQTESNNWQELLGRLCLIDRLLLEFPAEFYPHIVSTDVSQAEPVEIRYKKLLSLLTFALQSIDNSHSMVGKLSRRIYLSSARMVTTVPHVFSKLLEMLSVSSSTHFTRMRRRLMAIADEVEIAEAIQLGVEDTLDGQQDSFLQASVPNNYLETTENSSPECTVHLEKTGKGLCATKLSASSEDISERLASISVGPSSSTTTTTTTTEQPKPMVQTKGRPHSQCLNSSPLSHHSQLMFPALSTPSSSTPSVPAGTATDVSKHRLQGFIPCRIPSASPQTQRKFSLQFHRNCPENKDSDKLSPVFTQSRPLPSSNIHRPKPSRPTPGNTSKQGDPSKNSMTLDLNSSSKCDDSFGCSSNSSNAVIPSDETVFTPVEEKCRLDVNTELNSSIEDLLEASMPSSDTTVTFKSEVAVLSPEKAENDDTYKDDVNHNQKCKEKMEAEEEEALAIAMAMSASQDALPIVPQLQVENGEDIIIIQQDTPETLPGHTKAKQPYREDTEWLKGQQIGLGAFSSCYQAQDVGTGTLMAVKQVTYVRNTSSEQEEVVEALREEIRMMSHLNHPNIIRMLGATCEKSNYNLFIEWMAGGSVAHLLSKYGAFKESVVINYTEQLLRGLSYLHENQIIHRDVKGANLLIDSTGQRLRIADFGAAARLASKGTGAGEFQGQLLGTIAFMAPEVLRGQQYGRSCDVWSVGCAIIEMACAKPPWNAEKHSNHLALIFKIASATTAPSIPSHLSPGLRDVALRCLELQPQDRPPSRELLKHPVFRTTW

[10] = Clearance in Sprague dawley rat plasma at 1 mg/kg, IV relative to liver blood flow; format: ADME, organism-based
[11] = Ratio of unbound drug level in C57BL/6 WT mouse brain to plasma at 5 mg/kg, sc and measured after 0.5 hrs; format: ADME, organism-based; conditions: C57BL/6, mouse
BCRP (human) [12] = experiment: Apparent permeability in MDCK cells expressing human BCRP; format: ADME, cell-based, Canis lupus familiaris; conditions: dog
[13] = target: T2, Interleukin-1 receptor-associated kinase 3 (Homo sapiens) (UniProt Q9Y616); experiment: Inhibition of IRAK3 expressed in human PBMCs measured at 10 uM by KiNativ profiling analysis relative to control
T2 sequence (whole entry): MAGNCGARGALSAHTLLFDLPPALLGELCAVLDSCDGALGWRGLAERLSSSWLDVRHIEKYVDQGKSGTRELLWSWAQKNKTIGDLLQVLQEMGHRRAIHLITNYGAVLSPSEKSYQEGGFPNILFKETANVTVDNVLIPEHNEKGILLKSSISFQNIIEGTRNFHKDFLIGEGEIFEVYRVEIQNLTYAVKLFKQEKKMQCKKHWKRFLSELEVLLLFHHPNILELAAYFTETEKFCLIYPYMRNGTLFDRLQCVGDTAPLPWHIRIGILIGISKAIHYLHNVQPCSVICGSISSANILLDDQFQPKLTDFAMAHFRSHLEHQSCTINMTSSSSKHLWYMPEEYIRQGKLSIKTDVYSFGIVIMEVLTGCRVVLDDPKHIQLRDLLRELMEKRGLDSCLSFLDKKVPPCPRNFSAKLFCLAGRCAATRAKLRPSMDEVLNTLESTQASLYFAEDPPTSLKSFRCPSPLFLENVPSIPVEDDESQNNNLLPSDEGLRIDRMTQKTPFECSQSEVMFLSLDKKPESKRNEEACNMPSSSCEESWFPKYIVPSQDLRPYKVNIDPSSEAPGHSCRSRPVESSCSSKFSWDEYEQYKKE

[14] = target: T3, Leucine-rich repeat serine/threonine-protein kinase 2 (Homo sapiens, UniProt Q5S007); experiment: Binding affinity to human LRRK2 WT expressed in mammalian system assessed as dissociation constant measured at 1 uM by DiscoveRx KINOMEscan assay
T3 sequence (Q5S007 whole entry): as the sequence (Q5S007 whole entry G2019S, the tested form may be a part) above, with S2019G counted along it

[15] = target: T3, Leucine-rich repeat serine/threonine-protein kinase 2; experiment: Inhibition of LRRK2-pSer935 in LRRK2 WT expressing human HEK293 cells and measured after 48 hrs by ICW assay; format: cell-based
[16] = Oral bioavailability in Sprague-Dawley rat plasma at 2 mg/kg relative to liver blood flow; format: ADME, organism-based
[17] = target: T3, Leucine-rich repeat serine/threonine-protein kinase 2; experiment: Inhibition of recombinant human LRRK2 WT using fluorescein-labeled LRRKtide as substrate in presence of ATP preincubated for 50 mins followed by anti-phospho-LRRKtide antibody addition and measured after 30 mins by TR-FRET based Lanthascreen kinase activity assay
P-glycoprotein (human) [18] = experiment: Efflux ratio of permeability across basolateral to apical side over apical to basolateral side in MDCK-MDR1 cells expressing human P-glycoprotein; conditions: dog
[19] = Half life in steady state in Beagle dog plasma at 1 mg/kg, IV […]; format: ADME, organism-based, Canis lupus familiaris
[20] = Volume of distribution in steady state in Beagle dog plasma at 1 mg/kg, IV […]; format: ADME, organism-based, Canis lupus familiaris; conditions: read-out: Vdss
[21] = Drug uptake in Mdr1a/ 1b-BCRP knockout C57BL/6 mouse brain at 5 mg/kg, sc and measured after 0.5 hrs; format: ADME, organism-based; conditions: read-out: Drug uptake
[22] = target: T1, Leucine-rich repeat serine/threonine-protein kinase 2; experiment: Inhibition of LRRK2-pSer935 in LRRK2 G2019S mutant expressing human HEK293 cells and measured after 48 hrs by ICW assay; format: cell-based
[23] = Clearance in Beagle dog plasma at 1 mg/kg, IV relative to liver blood flow; format: ADME, organism-based, Canis lupus familiaris
[24] = target: T4, Adenosine receptor A2b (Homo sapiens) (UniProt P29275); experiment: Binding affinity to human Adenosine receptor A2b at 1 uM by radioligand binding assay relative to control
T4 sequence (whole entry): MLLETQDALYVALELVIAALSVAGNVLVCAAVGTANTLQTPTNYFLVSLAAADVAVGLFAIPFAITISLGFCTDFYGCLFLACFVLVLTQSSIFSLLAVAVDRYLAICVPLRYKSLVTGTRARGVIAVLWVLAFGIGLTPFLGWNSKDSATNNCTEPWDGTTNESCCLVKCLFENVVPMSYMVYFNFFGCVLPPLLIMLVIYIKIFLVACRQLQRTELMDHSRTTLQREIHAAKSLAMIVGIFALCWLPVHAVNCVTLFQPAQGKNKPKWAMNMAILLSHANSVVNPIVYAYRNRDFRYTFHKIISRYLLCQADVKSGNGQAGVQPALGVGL

Homo sapiens = species on record: Homo sapiens; experiment: Inhibition of human PIP5K2C (M1/A421) WT expressed in mammalian system assessed as remaining activity measured at 1 uM by DiscoveRx KINOMEscan assay relative to control
[25] = Ratio of unbound drug level in Md1a/1b BCRP knockout C57BL/6 mouse brain to plasma at 5 mg/kg, sc and measured after 0.5 hrs; format: ADME, organism-based; conditions: in vivo
[26] = Half life in Sprague-Dawley rat plasma at 1 mg/kg, IV […]; format: ADME, organism-based
P-glycoprotein (human) [27] = experiment: Apparent permeability in MDCK-MDR1 cells expressing human P-glycoprotein; format: ADME, cell-based, Canis lupus familiaris; conditions: dog

Structure (SMILES) | pKd [1] | CLint scaled [2] | residual activity [3] | inhibition [4] | efflux ratio (BCRP (human) [5]) | Vd [6] | Kp at 0.5 h [7] | pIC50 [8] | pIC50 [9] | clearance [10] | Kp uu at 0.5 h [11] | Papp (BCRP (human) [12]) | inhibition [13] | pKd [14] | pIC50 [15] | bioavailability [16] | pIC50 [17] | efflux ratio (P-glycoprotein (human) [18]) | half-life [19] | Vd [20] | other results
Cc1c(Nc2nc(N)c3c(C#N)c(N4CCC[C@H]4C)n(C)c3n2)cnn1[C@@H]1CCOC1 | 6.33 | 28.3 mL/min/kg | 25% | 45% | 34 | 1.7 L/kg | 0.06 | 7.92 | 5.96 | 158 mL/min/kg | 0.02 | 0.7 ×10⁻⁶ cm/s | -6% | 8.43 | 6.74 | 5% | 7.70 | 1.2 | 30 min | 1 L/kg | Ratio ([7]; mouse, brain, 5 mg/kg, 0.5 h): 0.07; concentration at 0.5 h [21]: 2060 ng/g; pIC50 [22]: 7.10; clearance [23]: 36.7 mL/min/kg; inhibition [24]: 18%; Activity (Homo sapiens): < 37%; Ratio [25]: 0.37; half-life [26]: 6 min; Papp (P-glycoprotein (human) [27]): 4.6 ×10⁻⁶ cm/s
Cc1c(Nc2nc(N)c3c(C#N)c(N4CCC[C@H]4C)n(C)c3n2)cnn1[C@H]1CCOC1 | 7.17 | 23.3 mL/min/kg | 1.9% | 29% | 22 | 1.1 L/kg | 0.15 | 7.85 | 6.08 | 76.7 mL/min/kg | 0.02 | 1.2 ×10⁻⁶ cm/s | 37% | 8.18 | 6.85 | < 1% | 7.64 | 0.9 | 36 min | 1.8 L/kg | concentration at 0.5 h [21]: 1080 ng/g; pIC50 [22]: 7.29; clearance [23]: 53.3 mL/min/kg; inhibition [24]: 26%; Activity (Homo sapiens): < 37%; Ratio [25]: 0.24; half-life [26]: 12 min; Papp (P-glycoprotein (human) [27]): 4.3 ×10⁻⁶ cm/s
